Consider 1 compound from patent US8343467B2 (Beiersdorf AG, priority 2004, dated 2013).

In one data set the test system is bacteria. In words: antimicrobial / antibacterial effectiveness of glycopyrrolate alone and as enhancer. Type of data set: cell-based. An excerpt: Although this incorporation alone is not sufficient to destroy the bacteria, this makes them more susceptible to attack by antibacterial substances (deodorizing/antiperspirant agents) which can pass through or even destroy the membrane due to the impaired membrane integrity.

For data set [1] the following is noted: compared with scopolamine, cited from earlier work.

As to `C[N+]1(C)CC[C@@H](OC(=O)[C@@](O)(c2ccccc2)C2CCCC2)C1` (relative stereo) [Glycopyrrolate, (±)-(R*)-3-[(S*)-(cyclopentyl hydroxyphenylacetoxy]-1,1-dimethylpyrrolidiniumbromide], the antimicrobial effectiveness result in the data set with bacteria (glycopyrrolate alone) is given as “no or only slight antimicrobial effectiveness”. Further, in the data set on bacteria (glycopyrrolate alone in the formulations used), the antibacterial effect result was “does not show any antibacterial effect”. The “penetration of biological membranes” value in data set [1] is on record as “penetrates biological membranes more slowly”. Moreover, the side effects entry in data set [1] (topical) is listed as “fewer side effects than scopolamine”.
